Laboratory results reported in patent US4068070A, “α-Cyanoamine compounds and a process for producing the same” (Fuji Chemical Industry Co., Ltd., priority 1974, dated 1978).

Assays:
Format in all cases: in vivo, mongrel adult dogs
aortic blood flow = experiment: Effects on aortic blood flow
Description: (§1) All experiments were made on male and female thoractomized mongrel adult dogs weighing about 10 kg. under anesthesia with pentobarbital sodium. Compounds A, D, E and F were suspended in 0.2% CMC solution, Compound B dissolved in hydrochloric acid solution (pH 6), and Compound C and active placebo being dissolved in physiological saline solution. Animals were administered the drug intravenously on brachiuma with either test compound or active placebo.
(§2) Arterial blood pressure was measured by pressure transducer (Nippon Koden MPU-0.5) connected with the cannula inserted from exposed carotid artery into aorta. Aortic blood flow was determined by means of electromagnetic flow meter (Nippon Koden MF-5) mounted at the origin of the aorta. Coronary sinus out flow and coronary sinus oxygen tension were assessed by means of electromagnetic flow meter (Nippon Koden MF-5) and P02 macro electrode (Beokmann Moder 160-C), respectively using Morawitz cannulization technique. Heart rate was measured by cardiotachometer (Nippon Koden RT-2) synchronized with systolic blood pressure of aorta.

[1] = tested on: coronary sinus oxygen tension; experiment: Effects on coronary sinus oxygen tension
Description: as §1, §2

[2] = tested on: arterial mean blood pressure; experiment: Effects on arterial mean blood pressure
Description: as §1, §2

coronary sinus out flow = experiment: Effects on coronary sinus out flow
Description: as §1, §2

heart rate = experiment: Effects on heart rate
Description: as §1, §2

SMILES: CCOC(=O)CN1CCN(C(C#N)c2ccc(OC)c(OC)c2)CC1 (centres unmarked) [Compound B]
- Changes (%) of basal values, aortic blood flow (aortic blood flow; 0.2 mg/kg i.v., 1 min): +1.2%
- Changes (%) of basal values, aortic blood flow (aortic blood flow; 0.2 mg/kg i.v., 5 min): +0.3%
- Changes (%) of basal values, aortic blood flow (aortic blood flow; 0.2 mg/kg i.v., 10 min): -0.1%
- Changes (%) of basal values, aortic blood flow (aortic blood flow; 0.2 mg/kg i.v., 20 min): 0%
- Changes (%) of basal values, aortic blood flow (aortic blood flow; 0.2 mg/kg i.v., 30 min): 0%
- Changes (%) of basal values, aortic blood flow (aortic blood flow; 0.2 mg/kg i.v., 40 min): 0%
- Changes (%) of basal values, aortic blood flow (aortic blood flow; 0.2 mg/kg i.v., imm.): +2.5%
- Changes (%) of basal values, aortic blood flow (aortic blood flow; 0.6 mg/kg i.v., 1 min): +1.6%
- Changes (%) of basal values, aortic blood flow (aortic blood flow; 0.6 mg/kg i.v., 5 min): +2.3%
- Changes (%) of basal values, aortic blood flow (aortic blood flow; 0.6 mg/kg i.v., 10 min): 0%
- Changes (%) of basal values, aortic blood flow (aortic blood flow; 0.6 mg/kg i.v., 20 min): -1.1%
- Changes (%) of basal values, aortic blood flow (aortic blood flow; 0.6 mg/kg i.v., 30 min): -0.7%
- Changes (%) of basal values, aortic blood flow (aortic blood flow; 0.6 mg/kg i.v., 40 min): 0%
- Changes (%) of basal values, aortic blood flow (aortic blood flow; 0.6 mg/kg i.v., imm.): +4.8%
- Changes (%) of basal values, aortic blood flow (aortic blood flow; 2.0 mg/kg i.v., 1 min): +4.3%
- Changes (%) of basal values, aortic blood flow (aortic blood flow; 2.0 mg/kg i.v., 5 min): -1.2%
- Changes (%) of basal values, aortic blood flow (aortic blood flow; 2.0 mg/kg i.v., 10 min): -2.1%
- Changes (%) of basal values, aortic blood flow (aortic blood flow; 2.0 mg/kg i.v., 20 min): -1.8%
- Changes (%) of basal values, aortic blood flow (aortic blood flow; 2.0 mg/kg i.v., 30 min): 0%
- Changes (%) of basal values, aortic blood flow (aortic blood flow; 2.0 mg/kg i.v., 40 min): 0%
- Changes (%) of basal values, aortic blood flow (aortic blood flow; 2.0 mg/kg i.v., imm.): +6.2%
- Effects on aortic blood flow (in words) (aortic blood flow; i.v., anesthetized dogs): an increase in blood flow immediately after administration, followed by a decrease in blood flow
- Changes(%) of basal values, coronary sinus oxygen tension ([1]; 0.2 mg/kg i.v., 1 min): +11.3%
- Changes(%) of basal values, coronary sinus oxygen tension ([1]; 0.2 mg/kg i.v., 5 min): +1.0%
- Changes(%) of basal values, coronary sinus oxygen tension ([1]; 0.2 mg/kg i.v., 10 min): -2.0%
- Changes(%) of basal values, coronary sinus oxygen tension ([1]; 0.2 mg/kg i.v., 20 min): -0.5%
- Changes(%) of basal values, coronary sinus oxygen tension ([1]; 0.2 mg/kg i.v., 30 min): 0%
- Changes(%) of basal values, coronary sinus oxygen tension ([1]; 0.2 mg/kg i.v., 40 min): 0%
- Changes(%) of basal values, coronary sinus oxygen tension ([1]; 0.2 mg/kg i.v., imm.): +25.5%
- Changes(%) of basal values, coronary sinus oxygen tension ([1]; 0.6 mg/kg i.v., 1 min): +46.4%
- Changes(%) of basal values, coronary sinus oxygen tension ([1]; 0.6 mg/kg i.v., 5 min): +8.9%
- Changes(%) of basal values, coronary sinus oxygen tension ([1]; 0.6 mg/kg i.v., 10 min): -3.2%
- Changes(%) of basal values, coronary sinus oxygen tension ([1]; 0.6 mg/kg i.v., 20 min): -0.9%
- Changes(%) of basal values, coronary sinus oxygen tension ([1]; 0.6 mg/kg i.v., 30 min): 0%
- Changes(%) of basal values, coronary sinus oxygen tension ([1]; 0.6 mg/kg i.v., 40 min): 0%
- Changes(%) of basal values, coronary sinus oxygen tension ([1]; 0.6 mg/kg i.v., imm.): +68.4%
- Changes(%) of basal values, coronary sinus oxygen tension ([1]; 2.0 mg/kg i.v., 1 min): +70.9%
- Changes(%) of basal values, coronary sinus oxygen tension ([1]; 2.0 mg/kg i.v., 5 min): +26.7%
- Changes(%) of basal values, coronary sinus oxygen tension ([1]; 2.0 mg/kg i.v., 10 min): +8.0%
- Changes(%) of basal values, coronary sinus oxygen tension ([1]; 2.0 mg/kg i.v., 20 min): +3.0%
- Changes(%) of basal values, coronary sinus oxygen tension ([1]; 2.0 mg/kg i.v., 30 min): +0.8%
- Changes(%) of basal values, coronary sinus oxygen tension ([1]; 2.0 mg/kg i.v., 40 min): 0%
- Changes(%) of basal values, coronary sinus oxygen tension ([1]; 2.0 mg/kg i.v., imm.): +80.7%
- Effects on coronary sinus oxygen tension (in words) ([1]; i.v., anesthetized dogs): a significant increase in coronary sinus oxygen tension, effect of which was of long duration
- Changes (%) of basal values, arterial mean blood pressure ([2]; 0.2 mg/kg i.v., 1 min): +4.8%
- Changes (%) of basal values, arterial mean blood pressure ([2]; 0.2 mg/kg i.v., 5 min): +0.4%
- Changes (%) of basal values, arterial mean blood pressure ([2]; 0.2 mg/kg i.v., 10 min): +0.1%
- Changes (%) of basal values, arterial mean blood pressure ([2]; 0.2 mg/kg i.v., 20 min): -0.1%
- Changes (%) of basal values, arterial mean blood pressure ([2]; 0.2 mg/kg i.v., 30 min): 0%
- Changes (%) of basal values, arterial mean blood pressure ([2]; 0.2 mg/kg i.v., 40 min): 0%
- Changes (%) of basal values, arterial mean blood pressure ([2]; 0.2 mg/kg i.v., imm.): -5.0%
- Changes (%) of basal values, arterial mean blood pressure ([2]; 0.6 mg/kg i.v., 1 min): +6.2%
- Changes (%) of basal values, arterial mean blood pressure ([2]; 0.6 mg/kg i.v., 5 min): +0.1%
- Changes (%) of basal values, arterial mean blood pressure ([2]; 0.6 mg/kg i.v., 10 min): -0.3%
- Changes (%) of basal values, arterial mean blood pressure ([2]; 0.6 mg/kg i.v., 20 min): 0%
- Changes (%) of basal values, arterial mean blood pressure ([2]; 0.6 mg/kg i.v., 30 min): 0%
- Changes (%) of basal values, arterial mean blood pressure ([2]; 0.6 mg/kg i.v., 40 min): 0%
- Changes (%) of basal values, arterial mean blood pressure ([2]; 0.6 mg/kg i.v., imm.): -14.4%
- Changes (%) of basal values, arterial mean blood pressure ([2]; 3.0 mg/kg i.v., 1 min): +7.0%
- Changes (%) of basal values, arterial mean blood pressure ([2]; 3.0 mg/kg i.v., 5 min): +2.5%
- Changes (%) of basal values, arterial mean blood pressure ([2]; 3.0 mg/kg i.v., 10 min): +0.4%
- Changes (%) of basal values, arterial mean blood pressure ([2]; 3.0 mg/kg i.v., 20 min): -1.0%
- Changes (%) of basal values, arterial mean blood pressure ([2]; 3.0 mg/kg i.v., 30 min): -0.5%
- Changes (%) of basal values, arterial mean blood pressure ([2]; 3.0 mg/kg i.v., 40 min): 0%
- Changes (%) of basal values, arterial mean blood pressure ([2]; 3.0 mg/kg i.v., imm.): -16.2%
- Effects on arterial mean blood pressure (in words) ([2]; i.v., anesthetized dogs): transitory hypotensive effect immediately after administration, and thereafter increased blood pressure which was then, from 10 minutes after medication, returned to the level before treatment
- Changes(%) of basal values, coronary sinus out flow (coronary sinus out flow; 0.2 mg/kg i.v., 1 min): +4.9%
- Changes(%) of basal values, coronary sinus out flow (coronary sinus out flow; 0.2 mg/kg i.v., 5 min): +0.7%
- Changes(%) of basal values, coronary sinus out flow (coronary sinus out flow; 0.2 mg/kg i.v., 10 min): 0%
- Changes(%) of basal values, coronary sinus out flow (coronary sinus out flow; 0.2 mg/kg i.v., 20 min): -0.3%
- Changes(%) of basal values, coronary sinus out flow (coronary sinus out flow; 0.2 mg/kg i.v., 30 min): 0%
- Changes(%) of basal values, coronary sinus out flow (coronary sinus out flow; 0.2 mg/kg i.v., 40 min): 0%
- Changes(%) of basal values, coronary sinus out flow (coronary sinus out flow; 0.2 mg/kg i.v., imm.): +18.0%
- Changes(%) of basal values, coronary sinus out flow (coronary sinus out flow; 0.6 mg/kg i.v., 1 min): +30.7%
- Changes(%) of basal values, coronary sinus out flow (coronary sinus out flow; 0.6 mg/kg i.v., 5 min): +0.9%
- Changes(%) of basal values, coronary sinus out flow (coronary sinus out flow; 0.6 mg/kg i.v., 10 min): -0.7%
- Changes(%) of basal values, coronary sinus out flow (coronary sinus out flow; 0.6 mg/kg i.v., 20 min): -0.2%
- Changes(%) of basal values, coronary sinus out flow (coronary sinus out flow; 0.6 mg/kg i.v., 30 min): 0%
- Changes(%) of basal values, coronary sinus out flow (coronary sinus out flow; 0.6 mg/kg i.v., 40 min): 0%
- Changes(%) of basal values, coronary sinus out flow (coronary sinus out flow; 0.6 mg/kg i.v., imm.): +39.5%
- Changes(%) of basal values, coronary sinus out flow (coronary sinus out flow; 2.0 mg/kg i.v., 1 min): +47.4%
- Changes(%) of basal values, coronary sinus out flow (coronary sinus out flow; 2.0 mg/kg i.v., 5 min): +8.2%
- Changes(%) of basal values, coronary sinus out flow (coronary sinus out flow; 2.0 mg/kg i.v., 10 min): +5.9%
- Changes(%) of basal values, coronary sinus out flow (coronary sinus out flow; 2.0 mg/kg i.v., 20 min): +3.2%
- Changes(%) of basal values, coronary sinus out flow (coronary sinus out flow; 2.0 mg/kg i.v., 30 min): +1.5%
- Changes(%) of basal values, coronary sinus out flow (coronary sinus out flow; 2.0 mg/kg i.v., 40 min): 0%
- Changes(%) of basal values, coronary sinus out flow (coronary sinus out flow; 2.0 mg/kg i.v., imm.): +55.1%
- Effects on coronary sinus out flow (in words) (coronary sinus out flow; i.v., anesthetized dogs): a marked increasing effect on coronary sinus out flow, which was proportioned to doses thereof and of long duration
- Changes(%) of basal values, heart rate (heart rate; 0.2 mg/kg i.v., 1 min): -0.9%
- Changes(%) of basal values, heart rate (heart rate; 0.2 mg/kg i.v., 5 min): 0%
- Changes(%) of basal values, heart rate (heart rate; 0.2 mg/kg i.v., 10 min): 0%
- Changes(%) of basal values, heart rate (heart rate; 0.2 mg/kg i.v., 20 min): 0%
- Changes(%) of basal values, heart rate (heart rate; 0.2 mg/kg i.v., 30 min): 0%
- Changes(%) of basal values, heart rate (heart rate; 0.2 mg/kg i.v., 40 min): 0%
- Changes(%) of basal values, heart rate (heart rate; 0.2 mg/kg i.v., imm.): -2.4%
- Changes(%) of basal values, heart rate (heart rate; 0.6 mg/kg i.v., 1 min): +0.6%
- Changes(%) of basal values, heart rate (heart rate; 0.6 mg/kg i.v., 5 min): -0.8%
- Changes(%) of basal values, heart rate (heart rate; 0.6 mg/kg i.v., 10 min): -0.2%
- Changes(%) of basal values, heart rate (heart rate; 0.6 mg/kg i.v., 20 min): 0%
- Changes(%) of basal values, heart rate (heart rate; 0.6 mg/kg i.v., 30 min): -0.5%
- Changes(%) of basal values, heart rate (heart rate; 0.6 mg/kg i.v., 40 min): 0%
- Changes(%) of basal values, heart rate (heart rate; 0.6 mg/kg i.v., imm.): -13.1%
- Changes(%) of basal values, heart rate (heart rate; 2.0 mg/kg i.v., 1 min): -2.4%
- Changes(%) of basal values, heart rate (heart rate; 2.0 mg/kg i.v., 5 min): -1.5%
- Changes(%) of basal values, heart rate (heart rate; 2.0 mg/kg i.v., 10 min): -0.7%
- Changes(%) of basal values, heart rate (heart rate; 2.0 mg/kg i.v., 20 min): 0%
- Changes(%) of basal values, heart rate (heart rate; 2.0 mg/kg i.v., 30 min): 0%
- Changes(%) of basal values, heart rate (heart rate; 2.0 mg/kg i.v., 40 min): 0%
- Changes(%) of basal values, heart rate (heart rate; 2.0 mg/kg i.v., imm.): -25.3%
- Effects on heart rate (in words) (heart rate; i.v., anesthetized dogs): a slight negative chronotropic effect
